Experimental data as given in patent US20040039014A1, “Methods and compounds for treating depression and other disorders” (NPS Pharmaceuticals, Inc., priority 1998, published 2004).
pIC50, pKi: −log10 of the molar value. Where a name gives a salt, the structure may show the parent alone. Marks after values point to notes of the source that are not given here.

How the values were obtained:
[1] = target: T1, NMDA receptor; experiment: [3H]MK-801 binding assay (rat cortex synaptic plasma membranes); conditions: read-out: [3H]MK-801 data IC50, Table I
T1 construct: rat cortex membranes
Experimental: Synaptic plasma membranes (SPMs) from rat cortex were prepared as follows. Isolated cerebral cortices from male and female rats were purchased from Pel-Freez (Rogers, Ariz.) in bulk, and stored at −80° C. The cortices from 25 rats were thawed and pooled. […] The resulting homogenates were centrifuged for 10 min at 1,000×g in a T865 rotor, UltraPro80 Sorvall Centrifuge. The supernatant was removed and subsequently centrifuged at 30,000×g for 30 min. […] Membranes were washed by re-suspension in 500 ml of 5 mM K-EDTA (pH 7.0), incubated at 32° C. for 30 min with stirring, and centrifuged at 100,000×g for 30 min. The final pellet was resuspended in 60 ml of […] K-EDTA (pH 7.0) and stored in aliquots at −80° C. The extensive washing procedure utilized in this assay was designed to minimize the concentrations of glutamate and glycine (co-agonists at the NMDA receptor-ionophore complex) present in the membrane preparation.
On the day of assay, aliquots of SPM were thawed and resuspended in 75 vols of 5 mM K-EDTA, pH 7.0. SPM were centrifuged at 100,000×g for 30 min at 4° C.
The SPM pellet was resuspended in assay buffer (30 mM EPPS, 1 mM K-EDTA, pH 7.0) by polytron. […] Binding was started by the addition of the tissue homogenate. The assay was terminated by the addition of 4 ml ice-cold buffer, followed by filtration over glass-fiber filters (Schleicher & Schuell No. 30) on a Millipore 12-well filtration manifold. Filters were washed with another 3 ×4 ml ice-cold buffer (pH 7.0). Radioactivity on the filters was measured using Fisherbrand Scinti-Safe scintillation cocktail. Samples were shaken for 45-60 min on a shaker platform to solubilize the radioactivity. Counting for ^3H was performed in a Beckman 6000IC LS Scintillation Counter for 4 min per sample.

[2] = target: T2, serotonin transporter site (Rattus norvegicus, UniProt P31652); experiment: Serotonin reuptake inhibition assay ([3H]citalopram binding, rat forebrain membranes); conditions: Table I; read-out: 5-HT Uptake Ki
T2 construct: tissue NovaScreen (performed the assay); host or cells: rat forebrain membranes
Experimental: (§1) Monoamine Transporter Minding Assays
(§2) Monoamine transporter binding assays (reuptake inhibition assays) were performed by NovaScreen using standard radioligand binding assays. The transporter binding assays are described briefly below:
Serotonin Reuptake Inhibition Assay
Rat forebrain membranes were incubated with 0.7 nM [^3H] citalopram, N-methyl, (70-87 Ci/mmol)in 50 mM Tris-HCl (pH 7.4), 120 mM NaCl, and 5 mM KCl at 25° C. for 60 minutes. […] Reactions were terminated by rapid vacuum filtration onto glass fiber filters.

[3] = target: T3, norepinephrine transporter site (Rattus norvegicus, UniProt Q63380); experiment: Norepinephrine reuptake inhibition assay ([3H]nisoxetine binding, rat forebrain membranes); conditions: Table I; read-out: NE Uptake Ki
T3 construct: tissue NovaScreen (performed the assay); host or cells: rat forebrain membranes
Experimental: as §1, §2
Norepinephrine Reuptake Inhibition Assay
Reactions were terminated by rapid vacuum filtration onto glass fiber filters.

[4] = test system: male NIH-Swiss mice; experiment: Mouse forced-swim test (FST); format: in vivo
Experimental: (§3) For the mouse and rat forced-swim tests, male pathogen-free NIH-Swiss mice (Harlan Sprague-Dawley) weighing between 22-25 g, and male pathogen-free Sprague-Dawley rats (Harlan Sprague-Dawley) weighing between 320-350 g were used. Animals were removed from the housing room to the testing area in their own cages and allowed to adapt to the new environment for at least 1 hour before testing. Mice were administered either drug (imipramine, 10 mg/kg i.p.; or Compound 60, various p.o or i.p. doses) or saline. Thirty minutes to 24 hours later, mice were placed individually in cylinders (diameter: 10 cm; height: 25 cm) filled with 6 cm of water (22-25° C.) for 6 minutes. The duration of immobility during the last 4 minutes of the 6 minute test was scored. A mouse was recorded as immobile when floating motionless or making only those movements necessary to keep its head above water. Results were expressed as the duration of immobility (seconds).

[5] = test system: male Sprague-Dawley rats; experiment: Rat forced-swim test (FST); format: in vivo; conditions: Table VI, 60 minutes prior to testing, saline control 47.9
Experimental: as §3
The rat forced-swim test was conducted over two days. On treatment Day 1, rats were placed individually in cylinders (diameter: 18 cm; height: 40 cm) filled with water (22-25° C.) to a depth of 15 cm for 15 minutes. The duration of immobility during the first 5 minutes was scored. After testing, the rats were dried with paper towels and placed in holding cages. Five minutes after removal from the testing cylinders, animals received either drug (imipramine, 10 mg/kg i.p.; or Compound 60, various p.o. doses) or saline (p.o.). Ten minutes later, the rats were returned to their home cages. […] The duration of immobility during the first 5 minute period was recorded. A rat was recorded as immobile when floating motionless or making only those movements necessary to keep its head above water. […]

[6] = Solubility; format: physicochemical; conditions: hydrochloride salt

T2 sequence (P31652 whole entry): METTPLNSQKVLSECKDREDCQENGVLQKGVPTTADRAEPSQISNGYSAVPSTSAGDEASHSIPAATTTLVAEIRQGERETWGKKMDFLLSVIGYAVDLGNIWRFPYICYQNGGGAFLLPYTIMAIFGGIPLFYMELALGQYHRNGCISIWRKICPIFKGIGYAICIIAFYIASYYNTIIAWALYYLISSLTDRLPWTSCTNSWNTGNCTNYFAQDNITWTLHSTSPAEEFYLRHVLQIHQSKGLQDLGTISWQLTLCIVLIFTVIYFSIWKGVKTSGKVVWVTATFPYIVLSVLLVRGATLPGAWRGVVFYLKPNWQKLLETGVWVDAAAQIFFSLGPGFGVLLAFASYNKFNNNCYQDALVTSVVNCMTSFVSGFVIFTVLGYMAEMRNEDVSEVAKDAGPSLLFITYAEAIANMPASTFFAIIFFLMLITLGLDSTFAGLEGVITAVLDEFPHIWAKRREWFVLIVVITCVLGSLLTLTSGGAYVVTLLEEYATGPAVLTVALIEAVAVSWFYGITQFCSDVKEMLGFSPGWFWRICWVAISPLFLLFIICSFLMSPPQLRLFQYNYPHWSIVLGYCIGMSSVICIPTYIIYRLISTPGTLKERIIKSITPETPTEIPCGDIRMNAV
T3 sequence (Q63380 1-617): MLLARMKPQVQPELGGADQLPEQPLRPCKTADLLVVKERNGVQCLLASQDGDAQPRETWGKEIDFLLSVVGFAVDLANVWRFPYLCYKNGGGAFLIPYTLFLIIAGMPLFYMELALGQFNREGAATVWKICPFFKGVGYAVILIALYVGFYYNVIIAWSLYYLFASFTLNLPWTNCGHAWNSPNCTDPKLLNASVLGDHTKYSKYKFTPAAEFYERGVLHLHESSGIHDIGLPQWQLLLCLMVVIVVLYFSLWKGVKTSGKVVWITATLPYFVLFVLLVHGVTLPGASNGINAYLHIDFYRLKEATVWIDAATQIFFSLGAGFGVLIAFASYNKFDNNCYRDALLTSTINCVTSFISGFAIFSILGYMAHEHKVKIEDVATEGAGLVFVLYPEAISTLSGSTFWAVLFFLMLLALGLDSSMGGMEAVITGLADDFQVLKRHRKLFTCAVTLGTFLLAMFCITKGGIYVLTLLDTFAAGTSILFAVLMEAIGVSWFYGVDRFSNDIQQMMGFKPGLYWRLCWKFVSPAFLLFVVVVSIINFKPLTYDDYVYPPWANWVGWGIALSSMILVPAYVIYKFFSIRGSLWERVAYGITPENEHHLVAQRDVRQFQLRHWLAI

Compound: CNCCC(c1cccc(F)c1)c1cccc(F)c1 [Compound 60, N-Methyl-3.,3-bis(3-fluorophenyl)propylamine hydrochloride]
- pIC50 [1]: 6.19
- pKi [2]: 7.17
- pKi [3]: < 5.00
- Mean duration of immobility ([4]; Table III, 5 mg/kg p.o. single dose, time post-dose 0.5, saline control 128.2): 96.1 s
- Mean duration of immobility ([4]; Table III, 5 mg/kg p.o. single dose, time post-dose 1, saline control 128.2): 38.8* sec
- Mean duration of immobility ([4]; Table III, 5 mg/kg p.o. single dose, time post-dose 2, saline control 128.2): 66.2* sec
- Mean duration of immobility ([4]; Table III, 5 mg/kg p.o. single dose, time post-dose 4, saline control 128.2): 66.9* sec
- Mean duration of immobility ([4]; Table III, 5 mg/kg p.o. single dose, time post-dose 6, saline control 128.2): 76.8* sec
- Mean duration of immobility ([4]; Table III, 5 mg/kg p.o. single dose, time post-dose 24, saline control 128.2): 124.8 s
- Mean duration of immobility ([4]; Table IV, 0.625 mg/kg single oral dose 60 minutes prior to testing, saline control 129.7): 153.3 s
- Mean duration of immobility ([4]; Table IV, 1.25 mg/kg single oral dose 60 minutes prior to testing, saline control 129.7): 72.3* sec
- Mean duration of immobility ([4]; Table IV, 2.5 mg/kg single oral dose 60 minutes prior to testing, saline control 129.7): 64.5* sec
- Mean duration of immobility ([4]; Table IV, 5 mg/kg single oral dose 60 minutes prior to testing, saline control 129.7): 56.6* sec
- Mean duration of immobility ([4]; Table IV, 10 mg/kg single oral dose 60 minutes prior to testing, saline control 129.7): 68.7* sec
- Mean duration of immobility ([4]; Table V, 0.625 mg/kg single i.p. dose 30 minutes prior to testing, saline control 137.8): 139.5 s
- Mean duration of immobility ([4]; Table V, 1.25 mg/kg single i.p. dose 30 minutes prior to testing, saline control 137.8): 85.6* sec
- Mean duration of immobility ([4]; Table V, 2.5 mg/kg single i.p. dose 30 minutes prior to testing, saline control 137.8): 68.5* sec
- Mean duration of immobility ([4]; Table V, 5 mg/kg single i.p. dose 30 minutes prior to testing, saline control 137.8): 89.6* sec
- Mean duration of immobility ([4]; Table V, 10 mg/kg single i.p. dose 30 minutes prior to testing, saline control 137.8): 106.1 s
- time of peak effect (reduction in the duration of immobility) post-dosing ([4]; mouse FST, single dose 5 mg/kg p.o.): 60 min
- Mean Change in the Duration of Immobility (Day 2 minus Day 1) ([5]; 1.25 mg/kg oral): 29.7 s
- Mean Change in the Duration of Immobility (Day 2 minus Day 1) ([5]; 2.5 mg/kg oral): −24.8* sec
- Mean Change in the Duration of Immobility (Day 2 minus Day 1) ([5]; 5 mg/kg oral): −28.8* sec
- solubility ([6]; ethanol, organic solvent or mixture, EtOH): 1000 mg/mL
- solubility ([6]; water, H2O): 2000 mg/mL
